Measurements published in ChEMBL document CHEMBL5303573, “Mapping human microbiome drug metabolism by gut bacteria and their genes” (Nature, 2019).

Assays:
[1] = parabacteroides johnsonii, 12 h, 2 µM
Description: The drug is tested on Parabacteroides johnsonii strain: DSM18315 for biotransformation. The drug concentrations were measured before and after a 12-h incubation by liquid-chromatography-coupled mass spectrometry (LC–MS)

[2] = The drug is tested on Clostridium scindens strain: ATCC35704 for biotransformation. The drug concentrations were measured before and after a 12-h incubation by liquid-chromatography-coupled mass spectrometry (LC–MS); conditions: 2 µM
[3] = The drug is tested on Escherichia coli strain: BW25113 for biotransformation. The drug concentrations were measured before and after a 12-h incubation by liquid-chromatography-coupled mass spectrometry (LC–MS); conditions: 2 µM
[4] = The drug is tested on Parabacteroides merdae strain: ATCC43184 for biotransformation. The drug concentrations were measured before and after a 12-h incubation by liquid-chromatography-coupled mass spectrometry (LC–MS); conditions: 2 µM
[5] = The drug is tested on Providencia stuartii strain: ATCC25827 for biotransformation. The drug concentrations were measured before and after a 12-h incubation by liquid-chromatography-coupled mass spectrometry (LC–MS); conditions: 2 µM
[6] = The drug is tested on Ruminococcus lactaris strain: ATCC29176 for biotransformation. The drug concentrations were measured before and after a 12-h incubation by liquid-chromatography-coupled mass spectrometry (LC–MS); conditions: 2 µM
[7] = bacteroides thetaiotaomicron, 12 h, 2 µM
Description: The drug is tested on Bacteroides thetaiotaomicron strain: 3731 for biotransformation. The drug concentrations were measured before and after a 12-h incubation by liquid-chromatography-coupled mass spectrometry (LC–MS)

[8] = The drug is tested on Bacteroides fragilis strain: ATCC43859 for biotransformation. The drug concentrations were measured before and after a 12-h incubation by liquid-chromatography-coupled mass spectrometry (LC–MS); conditions: 2 µM
[9] = The drug is tested on Collinsella aerofaciens strain: ATCC25986 for biotransformation. The drug concentrations were measured before and after a 12-h incubation by liquid-chromatography-coupled mass spectrometry (LC–MS); conditions: 2 µM
[10] = The drug is tested on Eubacterium ventriosum strain: ATCC27560 for biotransformation. The drug concentrations were measured before and after a 12-h incubation by liquid-chromatography-coupled mass spectrometry (LC–MS); type: ADME; design: dose 2 uM, timepoint 0 vs 12 hours; conditions: 2 µM
[11] = The drug is tested on Ruminococcus gnavus strain: ATCC29149 for biotransformation. The drug concentrations were measured before and after a 12-h incubation by liquid-chromatography-coupled mass spectrometry (LC–MS); conditions: mediterraneibacter gnavus, 2 µM
[12] = The drug is tested on Bacteroides coprophilus strain: DSM18228 for biotransformation. The drug concentrations were measured before and after a 12-h incubation by liquid-chromatography-coupled mass spectrometry (LC–MS); conditions: 2 µM
[13] = The drug is tested on Clostridium sporogenes strain: ATCC15579 for biotransformation. The drug concentrations were measured before and after a 12-h incubation by liquid-chromatography-coupled mass spectrometry (LC–MS); conditions: 2 µM
[14] = bacteroides fragilis, 12 h, 2 µM
Description: The drug is tested on Bacteroides fragilis strain: NCTC 9343 for biotransformation. The drug concentrations were measured before and after a 12-h incubation by liquid-chromatography-coupled mass spectrometry (LC–MS)

[15] = The drug is tested on Eubacterium hallii strain: DSM3353 for biotransformation. The drug concentrations were measured before and after a 12-h incubation by liquid-chromatography-coupled mass spectrometry (LC–MS); conditions: anaerobutyricum hallii, 2 µM
[16] = The drug is tested on Clostridium ramosum strain: DSM1402 for biotransformation. The drug concentrations were measured before and after a 12-h incubation by liquid-chromatography-coupled mass spectrometry (LC–MS); conditions: thomasclavelia ramosa, 2 µM
[17] = The drug is tested on Enterococcus faecalis strain: V583 for biotransformation. The drug concentrations were measured before and after a 12-h incubation by liquid-chromatography-coupled mass spectrometry (LC–MS); conditions: 2 µM
[18] = enterocloster bolteae, 12 h, 2 µM
Description: The drug is tested on Clostridium bolteae strain: ATCCBAA-613 for biotransformation. The drug concentrations were measured before and after a 12-h incubation by liquid-chromatography-coupled mass spectrometry (LC–MS)

[19] = The drug is tested on Alistipes indistinctus strain: DSM22520 for biotransformation. The drug concentrations were measured before and after a 12-h incubation by liquid-chromatography-coupled mass spectrometry (LC–MS); conditions: 2 µM
[20] = bifidobacterium adolescentis, 12 h, 2 µM
Description: The drug is tested on Bifidobacterium adolescentis strain: ATCC 15703 for biotransformation. The drug concentrations were measured before and after a 12-h incubation by liquid-chromatography-coupled mass spectrometry (LC–MS)

SMILES	Bacterial Biotransformation [1]	Bacterial Biotransformation [2]	Bacterial Biotransformation [3]	Bacterial Biotransformation [4]	Bacterial Biotransformation [5]	Bacterial Biotransformation [6]	Bacterial Biotransformation [7]	Bacterial Biotransformation [8]	Bacterial Biotransformation [9]	Bacterial Biotransformation [10]	Bacterial Biotransformation [11]	Bacterial Biotransformation [12]	Bacterial Biotransformation [13]	Bacterial Biotransformation [14]	Bacterial Biotransformation [15]	Bacterial Biotransformation [16]	Bacterial Biotransformation [17]	Bacterial Biotransformation [18]	Bacterial Biotransformation [19]	Bacterial Biotransformation [20]
COC(=O)C1=C(C)NC(C)=C(C(=O)OC(C)C)C1c1cccc2nonc12 (stereo not given) [ISRADIPINE]	Compound NOT metabolized	Compound NOT metabolized	Compound NOT metabolized	Compound NOT metabolized	Compound NOT metabolized	Compound NOT metabolized	Compound NOT metabolized	Compound NOT metabolized	Compound NOT metabolized	Compound NOT metabolized	Compound NOT metabolized	Compound NOT metabolized	Compound NOT metabolized	Compound NOT metabolized	Compound NOT metabolized	Compound NOT metabolized	Compound NOT metabolized	Compound NOT metabolized	Compound NOT metabolized	Compound NOT metabolized
CC1OC(OC2C(O)CC(OC3C(O)CC(OC4CCC5(C)C(CCC6C5CCC5(C)C(C7=CC(=O)OC7)CCC65O)C4)OC3C)OC2C)CC(O)C1O (stereo not given)	Compound metabolized	Compound metabolized	Compound NOT metabolized	Compound metabolized	Compound NOT metabolized	Compound NOT metabolized	Compound NOT metabolized	Compound metabolized	Compound NOT metabolized	Compound NOT metabolized	Compound NOT metabolized	Compound metabolized	Compound metabolized	Compound NOT metabolized	Compound NOT metabolized	Compound NOT metabolized	Compound NOT metabolized	Compound NOT metabolized	Compound NOT metabolized	Compound NOT metabolized
COC1=C(OC)C(=O)C(CCCCCCCCCCO)=C(C)C1=O [IDEBENONE]	Compound NOT metabolized	Compound metabolized	Compound NOT metabolized	Compound NOT metabolized	Compound NOT metabolized	Compound metabolized	Compound NOT metabolized	Compound metabolized	Compound NOT metabolized	Compound NOT metabolized	Compound NOT metabolized	Compound NOT metabolized	Compound metabolized	Compound metabolized	Compound metabolized	Compound NOT metabolized	Compound NOT metabolized	Compound metabolized	Compound metabolized	Compound NOT metabolized
